Data reported in US20210253511A1, “COMPOUNDS AND USES FOR THE TREATMENT AND PREVENTION OF DISEASES AND CONDITIONS ASSOCIATE WITH OR AGGREVATED BY IMPARED MITOPHAGY” (Yissum Research Development Company of The Hebrew …, priority 2018, published 2021).

Legend:
C. elegans = assay: Off-food speed measurements; format: in vivo; settings: 4 mM, aged worms, untreated worms declined significantly
Method: Bar graphs presenting the speed of 3 and 11 days post L1 wild-type worms that were treated with 4 mM 1,8-Diaminooctane or with vehicle as a control. The measurements of speed were performed in the absence of food (n=6 assays performed over at least 3 days). Asterisks indicate significance for comparisons with control worms (day 11). **p<0.01, two-way ANOVA with Bonferroni post-test. NS, Not significant. Error bars indicate SEM.
For speed-imaging experiments, low-peptone NGM agar plates were used. These plates were prepared as described above apart from the of Bacto peptone concentration that was decreased to 0.13 g/L and the use of 60 mm petri dished (instead of 35 mm dishes). […] In brief, eight synchronized worms (age 3 or 11 post-L1) were put (for 30 min) in a drop of M9 buffer to clean them from external and internal bacteria. During the 30 min the M9 buffer was replaced twice. After 30 min, the worms were placed at the center of a 17 mm diameter copper ring on an unseeded low-peptone plate. Recording was started after 5 min acclimation time. The worms were recorded for 10 min at 0.5 frames/s, using a Q-Imaging MicroPublisher 5.0 RTV Microscope Camera mounted onto an Olympus SZ61 stereo microscope. A custom-written MATLAB software was used to analyze the speed. For each treatment, at least 48 animals in 6 independent assays were measured.

[1] = test system: mitophagy in C. elegans muscles; assay: Mitophagy imaging with Mito-Rosella sensor; format: in vivo; settings: 1 mM; L4 Rosella worms; 21° C.
Description: FIGS. 8A-8F. (FIG. 8A) is a schematic illustration of the Mito-Rosella sensor function. The Mito-Rosella sensor contains an N-terminal mitochondrial targeting signal, a pH-stable red fluorescent protein and a C-terminal pH-sensitive green fluorescent protein. In non-acidic environment the green to red fluorescent ratio is 0.6-0.8. However, in the autolysosome, where the pH is low, the green fluorescent is quenched and the green to red ratio is decreased to 0.2-0.5. By measuring the mitochondria red and green fluorescence, it was possible to monitor mitophagy in live worms. […] A bar graph presenting the results of mitophagy imaging experiments. L4 larval worms were treated with either 8 mM paraquat or 1 mM 1,8-Diaminooctane for 16 h, at 21° C. Control worms were treatment with similar volume of distilled water and incubated under similar conditions. Asterisks indicate significance for comparisons with control worms. […]
The Mito-Rosella sensor is composed of an N-terminal mitochondrial targeting sequence followed by a pH-insensitive red fluorescent protein (DsRed.T3) and a pH-sensitive green fluorescent protein (pHluorin) (FIG. 8A). In intact mitochondria the green to red fluorescence ratio is high (between 0.6-0.8). However, upon acidification in autolysosome (where mitochondria are degraded) the green fluorescence is quenched and thus the ration is decreased to 0.2-0.5.

[2] = test system: pink-1(tm1779) mutants / pink-1 RNAi worms; assay: Paraquat survival assay in pink-1 deletion mutant or RNAi knockdown worms; format: in vivo, C. elegans
Method: FIGS. 9A-9D show the protective activity of 1,8-Diaminooctane is mitophagy-dependent. (FIG. 9A) is a schematic illustration of the mitophagy pathway in C. elegans. Survival curves presenting the effect of dct-1 and pink-1 deletion mutations (FIG. 9B, FIG. 9C) or RNAi knockdowns (FIG. 9D) on worms' viability in 200 mM PQ at indicated time points. Statistical analysis on PQ survival curves were performed using the log-rank (Mantel-Cox) test with Prism 7 software. The plots represent the average of six independent experiments. The minimum number of worms examined for each experimental condition is 133.
In the first one, the effect of 1,8-Diaminooctane on the survival of dct-1 and pink-1 mutants in PQ was investigated. DCT-1 is an orthologue of the mammalian NIX/BNIP3L and BNIP3 that act as mitophagy receptors, and PINK-1 is a mitochondrial phosphatase and tensin (PTEN)-induced kinase 1 which has a critical function in mitophagy (see K. Palikaras, E. Lionaki, N. Tavernarakis, Coordination of mitophagy and mitochondrial biogenesis during ageing in C. elegans, Nature 521 (7553) (2015) 525-8; and FIG. 3A). It was hypothesized that if mitophagy is essential for the protective effect of 1,8-Diaminooctane, then dct-1 and pink-1 mutants will become sensitive to PQ following treatment. […] The second experiment that was performed was an RNAi experiment. Here, dct-1 and pink-1 were selectively knocked down using RNAi. The RNAi results recapitulated the one of the mutant experiments ([…]). […] Importantly, the RNAi phenotype was less strong compared to the one observed with the deletion mutants. […] The difference between the results could be due to incomplete suppression of dct-1 and pink-1 in the RNAi treated worms. Together, our results verify that 1,8-Diaminooctane protects against oxidative stress by activating mitophagy.

## NCCCCCCCCN [1,8-Diaminooctane]
C. elegans
  speed (off food), day 11 post L1: remained high and was similar to day 3
C. elegans; listed as 1,8-diaminooctane
  speed (off food), day 11 post L1: no change in the speed
[1]
  mitophagy response (Mito-Rosella green to red fluorescence ratio): strong mitophagy response
[2]; compared to control worms that did not get the treatment, p<0.0001
  survival in PQ of treated worms, RNAi against pink-1: significantly higher than control worms
[2]; compared to treated wild-type worms, 200 mM PQ, p<0.0001
  resistance to PQ after treatment, pink-1(tm1779) mutants: significantly less resistant to PQ
[2]; compared to worms treated with mock RNAi (empty vector)
  protective effect in PQ, RNAi against pink-1: significantly lesser
